Test [1] has as its target T1, Adrenergic receptor alpha-2 (Rattus norvegicus) (UniProt P22086+P19328+P22909). In words: In vitro antagonistic activity against alpha-2A adrenergic receptor in rat vas deferens; Ag means compound was agonist. The following applies: filed as agonist. In kind it is functional.
Test [2] deals with T1, Adrenergic receptor alpha-2 (Rattus norvegicus). The experiment in a line: In vitro agonist activity against alpha-2A adrenergic receptor in rat vas deferens. It counts as functional, tissue-based.
Test [3] addresses T2, Adrenergic receptor alpha-1 (Rattus norvegicus) (UniProt P15823+P23944+P43140). In words: In vitro antagonistic activity against alpha-1 adrenergic receptor in rat anococcygeus; Ag means compound was agonist. It counts as functional. The following applies: filed as agonist.
Test [4] concerns the target T2, Adrenergic receptor alpha-1 (Rattus norvegicus). The experiment in a line: In vitro agonist activity against alpha-1 adrenergic receptor in rat anococcygeus. It counts as functional.
The target is the same in test [5]. The experiment in a line: In vitro antagonistic activity against alpha-1 adrenergic receptor in rat anococcygeus. It counts as functional.
In test [6] the target is T1, Adrenergic receptor alpha-2 (Rattus norvegicus). The experiment in a line: In vitro antagonistic activity against alpha-2 adrenoceptor in rat vas deferens. It counts as functional, tissue-based.
Test [7] addresses T2, Adrenergic receptor alpha-1 (Rattus norvegicus). The experiment in a line: In vitro agonist activity against alpha-1 adrenoceptor in rat anococcygeus. In kind it is functional.
For test [8], the target named is T1, Adrenergic receptor alpha-2 (Rattus norvegicus). In words: In vitro agonist activity against alpha-2 adrenoceptor in rat vas deferens. It counts as functional, tissue-based.
Test [9] addresses T2, Adrenergic receptor alpha-1 (Rattus norvegicus). The experiment in a line: In vitro antagonistic activity against alpha1 adrenoceptor in rat anococcygeus; Ag means compound was agonist. It counts as functional. Conditions: filed as agonist.
Test [10] deals with T1, Adrenergic receptor alpha-2 (Rattus norvegicus). The experiment in a line: Antagonistic potency towards alpha-2 adrenergic receptor was determined by observing twich response of rat vas deferens after i.v. administration. In kind it is functional, organism-based.
The target of test [11] is T2, Adrenergic receptor alpha-1 (Rattus norvegicus). The experiment in a line: In vitro antagonistic activity against Alpha-1 adrenergic receptor in rat anococcygeus. It counts as functional.
The species named for test [12] is Rattus norvegicus. In words: Maximum percent inhibition electrically evoked contractions of rat vas deferens by the compound was determined as test for its agonistic activity. It counts as functional.
The species entered for test [13] is Rattus norvegicus. The experiment in a line: Antagonist activity against guanoxabenz-induced mydriasis in rat when given […]. In kind it is functional.
Test [14] relates to Rattus norvegicus. The experiment in a line: Effective dose of the compound required to inhibit electrically evoked contractions of rat vas deferens after i.v. administration. It counts as functional. The following applies: iv.
The target in test [15] is T1, Adrenergic receptor alpha-2 (Rattus norvegicus). The experiment in a line: In vitro antagonistic activity against alpha-2A adrenergic receptor in rat vas deferens. In kind it is functional, tissue-based.
For test [16] the target is unchanged. In words: In vitro antagonistic activity against alpha-2 adrenoceptor in rat vas deferens; Ag means compound was agonist. In kind it is functional. The following applies: filed as agonist.
The target is the same in test [17]. The experiment in a line: In vitro agonist activity against Alpha-2 adrenergic receptor in rat vas deferens. In kind it is functional, tissue-based.
Test [18] shares this target. The experiment in a line: In vitro antagonistic activity against Alpha-2 adrenergic receptor in rat vas deferens; Ag means compound was agonist. In kind it is functional. The following applies: filed as agonist.
The species named for test [19] is Rattus norvegicus. In words: Antagonist potency for alpha 2 adrenoceptor. In kind it is functional, organism-based. Conditions: read-out: pA2 (converted).
Test [20] deals with T1, Adrenergic receptor alpha-2 (Rattus norvegicus). The following applies: Vas deferens.
Description: Inhibitory activity against Alpha-2 adrenergic receptor in rat vas deferens

On to `CCN1CCOc2cc(NC3=NCCN3)ccc21`, for which the Potency result in test [1] was “Agonist”; in test [2], < 0.01; in [3] it was “Agonist”; in test [4], 0.055.

On to `c1ccc(CN2CCOc3cc(NC4=NCCN4)ccc32)cc1`, for which the Potency result is “Agonist” in [1], 0.02 in [2], 0.001 in [5] and 0 in test [4].

With `O=C1COc2cc(NC3=NCCN3)ccc2N1`, the Potency was 0.0013 in test [6], 0.006 in test [7], 0 in [8] and “Agonist” in test [9].

As to `CC(=O)N1CCc2ccc(NC3=NCCN3)cc21`, the Potency result was “Agonist” in test [1], 0.006 in test [2], 2e-05 in test [5] and 0 in test [4].

Turning to `I.O=CN1CCOc2ccc(NC3=NCCN3)cc21`, the Potency entry in [1] is “Agonist”; in test [2], 0.02; in test [11] it was 0.0006. The same compound showed a DR2 (ug min-1 kg-1) in test [10] of 6.8. Further, the Inhibition in the test filed under Rattus norvegicus [12] was found to be 62%. The AD50 in the test listed under Rattus norvegicus [13] is 0.297 mg/kg. This compound also came in with an ED40 in the test with Rattus norvegicus [14] of 0.385 mg/kg.

`O=C1COc2ccc(NC3=NCCN3)cc2N1`: the Potency is 0 in [2], 0.0005 in test [15], “Agonist” in test [3] and 0.002 in [4].

For `CN1CCOc2ccc(NC3=NCCN3)cc21`, the Potency result in [1] was “Agonist”; in test [2], 0.025; in test [3], “Agonist”; in test [4] it was 0.5.

In the case of `CN1CCOc2cc(NC3=NCCN3)ccc21.I`, the Activity result in [1] and in [3] was “Agonist” throughout. The DR2 (ug min-1 kg-1) in test [10] was found to be 4.62. Further, the Potency in [2] came out at 0.03; in [4] it was 0.0002. This compound returned an Inhibition in the test listed under Rattus norvegicus [12] of 65%. Besides, in the test listed under Rattus norvegicus [13], the AD50 stood at 0.0589 mg/kg. Further, the ED40 in the test on Rattus norvegicus [14] came out at 6.74 mg/kg.

On to `c1cc2c(cc1NC1=NCCN1)OCO2`, for which the Potency amounted to 0.03 in test [2], 0.025 in [15], 0.003 in test [5] and 0 in test [4].

On to `CS(=O)(=O)N1CCOc2ccc(NC3=NCCN3)cc21.I`, for which the Potency result in [1] was “Agonist”; in [2], 0.22; in test [5], 0.0005; in test [4] it was 0. In the test listed under Rattus norvegicus [12], this compound returned an Inhibition of 70%. Further, in the test listed under Rattus norvegicus [13], the AD50 was >0.3 mg/kg. This compound showed an ED40 in the test with Rattus norvegicus [14] of 0.0273 mg/kg.

Turning to `O=CN1CCOc2cc(NC3=NCCN3)ccc21`, the Potency is 0.02 in test [7], 0.006 in [8], “Agonist” in test [16] and “Agonist” in test [9].

Turning to `c1cc2c(cc1NC1=NCCN1)OCCO2`, the Potency in test [17] is 1.5; in test [7], 0.01; in [18], “Agonist”; in test [9] it was “Agonist”.

On to `CC(=O)N1CCOc2ccc(NC3=NCCN3)cc21.I`, for which the Potency entry in test [1] is “Agonist”; in test [2], 0.1; in test [5], 0.0006; in test [4] it was 0. Also, the Inhibition in the test filed under Rattus norvegicus [12] was 69%. The AD50 in the test listed under Rattus norvegicus [13] was >0.2 mg/kg. In the test with Rattus norvegicus [14], this compound registered an ED40 of 0.0179 mg/kg.

Take `Clc1cccc(Cl)c1NC1=NCCN1`: the Potency in test [7] is 0.8; in [8], 0.49; in test [16], “Agonist”; in test [9], “Agonist”.

For the compound `CCN1CCc2ccc(NC3=NCCN3)cc21`, the Potency in test [2] is 0; in [15], 0.04; in [3], “Agonist”; in test [4], 0.17.

In test [10], `c1ccc2c(c1)OCC(C1=NCCN1)O2` (centres undefined) [IDAZOXAN] yielded a DR2 (ug min-1 kg-1) of 2. In addition, the Kb in the test filed under Rattus norvegicus [19] is 10.5 nM. The AD50 in the test listed under Rattus norvegicus [13] was 0.02936 mg/kg.

With `Brc1c(NC2=NCCN2)ccc2nccnc12` [BRIMONIDINE], the Inhibition in the test listed under Rattus norvegicus [12] is reported as 100%. The compound further returned an ED40 in the test on Rattus norvegicus [14] of 0.0033 mg/kg.

In [20], `Nc1cc(Cl)c(N=C2NCCN2)c(Cl)c1` returned an IC40 of 1.99 nM.

The term Inhibition denotes the relative decrease from the control value, in per cent. A higher Inhibition goes with a strong effect.

These data come from ChEMBL document CHEMBL1124536, “Heteroaromatic analogues of the alpha 2-adrenoreceptor partial agonist clonidine” (J Med Chem, 1989).
